Measured values reported in publication PMC11791039, “A split intein and split luciferase-coupled system for detecting protein-protein interactions” (Molecular Systems Biology, 2024).
“And” between values parts separate entries of the source, which are not always exact repeats. Equal entries are not always repeated.

Key:
Format in all cases: cell-based
EGFR(L858R)/SHC1 [1] = target: T1, EGFR(L858R)/SHC1 (Homo sapiens, UniProt P00533, L858R); assay: SIMPL2 assay EGFR(L858R)/SHC1; conditions: replicates 1-4
T1 construct: β10-IN (tNLuc β10 peptide + GP41-1 split intein N fragment) (C); V5; expressed in transfected cells

EGFR(WT)/SHC1 [2] = target: T2, EGFR(WT)/SHC1 (Homo sapiens, UniProt P00533); assay: Western blot of EGFR(WT)-SHC1 splicing; conditions: inhibitor 100 nM, 16 h
T2 construct: β10-IN (tNLuc β10 peptide + GP41-1 split intein N fragment) (C); V5; expressed in transfected cells

control = target: T3, control (Homo sapiens, UniProt P01116, G12C); assay: SIMPL2 assay, control of Fig. 3B-D; conditions: replicates 1-4
T3 construct: IC-β9 (GP41-1 split intein C fragment + tNLuc β9 peptide) (N); FLAG; expressed in transfected cells

EGFR(L858R)/SHC1 [3] = target: T1, EGFR(L858R)/SHC1; assay: Western blot of EGFR(L858R)-SHC1 splicing; conditions: inhibitor 100 nM, 16 h
EGFR(WT)/SHC1 [4] = target: T2, EGFR(WT)/SHC1; assay: SIMPL2 assay EGFR(WT)/SHC1; conditions: replicates 1-4;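 further: 0% is no doxycycline or compound and 100% is doxycycline without compound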

T3 sequence (P01116 1-185 isoform P01116-2 G12C limits assumed): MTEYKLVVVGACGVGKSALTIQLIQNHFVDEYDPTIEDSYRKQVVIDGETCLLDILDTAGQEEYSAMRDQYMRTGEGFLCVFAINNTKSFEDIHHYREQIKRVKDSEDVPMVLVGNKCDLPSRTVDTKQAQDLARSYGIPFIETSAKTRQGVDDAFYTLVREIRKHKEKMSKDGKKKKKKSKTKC

Compound: COc1cc2ncnc(Nc3cccc(Cl)c3)c2cc1OC [AG1478]
- SIMPL2 signal, L858R (Fig. 3B) (EGFR(L858R)/SHC1 [1]; AG1478 6.4e-6 uM): 91.6588 and 97.6255 and 114.285 and 112.912
- SIMPL2 signal, L858R (Fig. 3B) (EGFR(L858R)/SHC1 [1]; AG1478 3.2e-5 uM): 89.0187 and 76.3196 and 106.708 and 96.4903
- SIMPL2 signal, L858R (Fig. 3B) (EGFR(L858R)/SHC1 [1]; AG1478 0.00016 uM): 80.0422 and 76.3461 and 104.596 and 91.474
- SIMPL2 signal, L858R (Fig. 3B) (EGFR(L858R)/SHC1 [1]; AG1478 0.0008 uM): 78.2733 and 74.7356 and 79.963 and 75.2372
- SIMPL2 signal, L858R (Fig. 3B) (EGFR(L858R)/SHC1 [1]; AG1478 0.004 uM): 44.1628 and 44.3476 and 45.9581 and 41.1531
- SIMPL2 signal, L858R (Fig. 3B) (EGFR(L858R)/SHC1 [1]; AG1478 0.02 uM): 13.9069 and 29.2725 and 26.9756 and 25.1011
- SIMPL2 signal, L858R (Fig. 3B) (EGFR(L858R)/SHC1 [1]; AG1478 0.1 uM): 16.4414 and 17.2863 and 10.8707 and 9.471
- SIMPL2 signal, L858R (Fig. 3B) (EGFR(L858R)/SHC1 [1]; AG1478 0.5 uM): 3.505 and 4.482 and 4.93 and 3.98
- splicing between EGFR(WT) and SHC1 (western blot) (EGFR(WT)/SHC1 [2]): reduced or abolished
- SIMPL2 signal, control (Fig. 3B) (control; AG1478 6.4e-6 uM): 78.4402 and 101.308 and 94.2905 and 84.6604
- SIMPL2 signal, control (Fig. 3B) (control; AG1478 3.2e-5 uM): 100.905 and 96.8875 and 97.961 and 100.282
- SIMPL2 signal, control (Fig. 3B) (control; AG1478 0.00016 uM): 91.8672 and 101.363 and 100.305 and 106.707
- SIMPL2 signal, control (Fig. 3B) (control; AG1478 0.0008 uM): 94.4089 and 99.0424 and 101.553 and 109.943
- SIMPL2 signal, control (Fig. 3B) (control; AG1478 0.004 uM): 91.5435 and 102.468 and 100.85 and 97.0453
- SIMPL2 signal, control (Fig. 3B) (control; AG1478 0.02 uM): 77.4062 and 87.6599 and 89.9806 (2×)
- SIMPL2 signal, control (Fig. 3B) (control; AG1478 0.1 uM): 82.8606 and 100.092 and 105.918 and 87.8651
- SIMPL2 signal, control (Fig. 3B) (control; AG1478 0.5 uM): 102.547 and 94.4247 and 100.724 and 111.159
- splicing between EGFR(L858R) and SHC1 (western blot) (EGFR(L858R)/SHC1 [3]): reduced or abolished
- SIMPL2 signal, WT (Fig. 3B) (EGFR(WT)/SHC1 [4]; AG1478 6.4e-6 uM): 102.427 and 84.7059 and 104.371 and 106.871
- SIMPL2 signal, WT (Fig. 3B) (EGFR(WT)/SHC1 [4]; AG1478 3.2e-5 uM): 77.5953 and 99.0938 and 89.9278 and 95.7607
- SIMPL2 signal, WT (Fig. 3B) (EGFR(WT)/SHC1 [4]; AG1478 0.00016 uM): 73.3734 and 100.927 and 94.8163 and 93.2609
- SIMPL2 signal, WT (Fig. 3B) (EGFR(WT)/SHC1 [4]; AG1478 0.0008 uM): 88.6501 and 85.7058 and 98.1494 and 104.871
- SIMPL2 signal, WT (Fig. 3B) (EGFR(WT)/SHC1 [4]; AG1478 0.004 uM): 74.54 and 81.3728 and 67.2627 and 74.6511
- SIMPL2 signal, WT (Fig. 3B) (EGFR(WT)/SHC1 [4]; AG1478 0.02 uM): 70.0958 and 71.7624 and 65.6517 and 61.8742
- SIMPL2 signal, WT (Fig. 3B) (EGFR(WT)/SHC1 [4]; AG1478 0.1 uM): 65.485 and 59.9854 and 59.7632 and 57.8189
- SIMPL2 signal, WT (Fig. 3B) (EGFR(WT)/SHC1 [4]; AG1478 0.5 uM): 29.8764 and 30.6541 and 19.6549 and 21.0437
